Assay results as given in patent US5534416A, “Fluorescent viability assay using cyclic-substituted unsymmetrical cyanine dyes” (Molecular Probes, Inc., priority 1993, dated 1996).

Tests used:
nucleic acids [1] = conditions: cited from earlier work
prokaryotic microbes = conditions: Kaneshiro et al. 1993; cited from earlier work
DNA = assay: Quantum yield of dye on DNA versus fluorescein; assay type: physicochemical; conditions: for Normalized QY: QY divided by QY of thiazole orange; for QY (DNA): Table 2, Tris buffered saline pH 10, fluorescein assumed 0.92; for QY: Table 7, on DNA, fluorescein reference
From the text: ^ Quantum yield (QY) of dye on DNA (standard solution in Tris buffere
saline adjusted to pH 10) in comparison with fluorescein, which is assume
to have a quantum yield of 0.92 under the test conditions.
(§1) Factors such as degree of fluorescence enhancement with nucleic acid binding, self quenching, molar extinction coefficient, membrane permeability, intracellular partitioning, nucleic acid binding affinity, and quantum yield contribute to the overall fluorescence of nucleic acid stains in cells. Enhanced cell fluorescence obtained with Dye I is related to unexpected properties other than quantum yield alone. Quantum yield is determined as described above (foot note to Table 2). Normalized quantum yield is determined to illustrate the fold-change in quantum yield of Dye I compared with thiazole orange, a related cell-permeant dye. The normalized fluorescence values represent the quantum yield of each dye divided by the quantum yield of thiazole orange. Fluorescence per cell is also scaled to thiazole orange values for both E. coli and S. aureus to allow direct comparison between relative (normalized) quantum yield and relative (normalized) fluorescence/cell.

M. luteus = assay: Fluorescence per cell, stained bacteria (microtiter plate reader); assay type: cell-based, Micrococcus luteus; conditions: optimal dye concentration, corrected for cell number
Procedure: (§2) 1. Measured in a fluorescence microtiter plate reader with extraction and
(§3) emission filters at 485+/-10 and 530+/-12, respectively. Fluorescence dat
(§4) are corrected for cell number; but are not corrected for cell volume or
(§5) 2. Optimal dye concentrations determined as in Example 3.
(§6) 3. Suspension concentrations as used for Example 3.
(§7) A culture of E. coli is washed by centrifugation and resuspended in water to its original volume. Using Corning 96-well microtiter plates with flat bottoms, 150 μL volumes of suspension are loaded per well. A single well of sterile water is the well background standard. Using a Dynatech MR600 microplate reader equipped with a 410 nm filter, absorbance is determined for the initial volumes of suspension. The suspension is diluted seven times by serial ten-fold dilutions in water, 150 μL of suspension per well, and the absorbance measured for each dilution. Following the absorbance measurements, each dilution loaded into wells is further diluted 1:10 and plated in duplicate on nutrient growth agar. The colonies are counted and expressed as colony forming units per milliliter (cfu/mL). Using the turbidity of the dilution in the microtiter plate, the suspension is diluted to a density of about 1×10^9 cfu/mL.
(§8) The bacteria suspension, adjusted to a known density as described above, is diluted seven times by serial ten-fold dilutions in water; 150 μL of suspension per well. Three-fold serial dilutions of dye are used (30-0.04 μM); 50 μL of dye at 4× final concentration. Using Corning 96-well microtiter flat-bottom plates, a matrix is set up whereby the cell concentration decreases across the plate and the dye concentration decreases down the plate, final volume per well is 200 μL. The top row and first column are reserved for the control, sterile water. The plate is incubated at 37° C. for 30 minutes, then read in a Millipore Cytofluor™ 2350 96-well fluorescence microplate reader at a fixed excitation of 485+/-10 nm and each of three emission wavelengths, 530+/-12, 620+/-20, or 645+/-20 nm. The results determine the best dye range (30-1 μM) and the best cell concentrations (concentrated through first three ten-fold dilutions) for optimal dye loading. […] Using the four dye dilutions and the four bacterial dilutions, many bacteria and dyes can be assayed quickly. The data collected allow the determination of optimal dye and cell concentration required for maximal fluorescence intensity per cell.

B. cereus = assay: as above; assay type: cell-based, Bacillus cereus; conditions: optimal dye concentration, corrected for cell number
Procedure: as §2, §3, §4, §5, §6, §7, §8

P. aeruginosa = assay: as above; assay type: cell-based, Pseudomonas aeruginosa; conditions: optimal dye concentration, corrected for cell number
Procedure: as §2, §3, §4, §5, §6, §7, §8

S. aureus = assay: as above; assay type: cell-based, Staphylococcus aureus; conditions: for Fluorescence/Cell (ex 485/em 530): S. aureus, optimal dye concentration, corrected for cell number; for Normalized Fluorescence/cell (ex 485 nm/em 530 nm), Staphylococcus aureus: scaled to thiazole orange
From the text: as §2, §3, §4, §5, §6, §1, §7, §8

nucleic acids [2] = assay: Excitation/emission maxima of dyes complexed with nucleic acids; assay type: physicochemical; design: key: wavelength in nm; conditions: Table 2; dye complexed with nucleic acids
From the text: Dye I is lightly colored and is virtually non-fluorescent when diluted in aqueous solution according to the method of the invention. Dye I is highly membrane-permeant and labels all cells, whether live or dead. When Dye I binds with intracellular nucleic acid polymers such as DNA and RNA, the resultant dye-nucleic acid complex becomes extremely fluorescent upon illumination. The quantum yield of the preferred Dye I/DNA complex is greater than 0.02, typically greater than 0.1, preferably greater than 0.2, and more preferably greater than 0.3. Typically, Dye I combines with intracellular nucleic acids to give a green or red fluorescence. When excited at a wavelength between about 300 nm and about 500 nm, the dyes complexed with nucleic acids have an emission maximum between about 500 and about 610 nm (see Table 2). Preferably, Dye I complexed with nucleic acids has an emission maximum of between about 500 nm and about 535 nm, resulting in a true green fluorescent signal in cells of the sample where Dye I is present alone.

S. sonnei = assay: Fluorescence per cell, stained bacteria (microtiter plate reader); assay type: cell-based, Shigella sonnei; conditions: optimal dye concentration, corrected for cell number
Procedure: as §2, §3, §4, §5, §6, §7, §8

K. pneumonia = assay: as above; assay type: cell-based, Klebsiella pneumonia; conditions: optimal dye concentration, corrected for cell number
Procedure: as §2, §3, §4, §5, §6, §7, §8

S. pyogenes = assay: as above; assay type: cell-based, Streptococcus pyogenes; conditions: optimal dye concentration, corrected for cell number
Procedure: as §2, §3, §4, §5, §6, §7, §8

S. oranienburg = assay: as above; assay type: cell-based, Salmonella oranienburg; conditions: optimal dye concentration, corrected for cell number
Procedure: as §2, §3, §4, §5, §6, §7, §8

E. coli = assay: as above; assay type: cell-based, Escherichia coli; conditions: for Fluorescence/Cell (ex 485/em 530): E. coli, optimal dye concentration, corrected for cell number; for Normalized Fluorescence/cell (ex 485 nm/em 530 nm), Escherichia coli: scaled to thiazole orange
From the text: as §2, §3, §4, §5, §6, §1, §7, §8

[3] = test system: NIH/3T3 mouse fibroblast cell line; assay: Live/dead staining of fibroblasts, fluorescence microscopy; assay type: cell-based
Procedure: NIH/3T3 mouse fibroblast cell line is obtained from American Type Culture Collection Co., Rockville, Md. The cells are maintained in a humidified atmosphere of 5% CO2 in Dulbecco's modified Eagle's medium (DMEM) supplemented with 10% calf serum, 50 μg/mL gentamicin, 300 μg/mL L-glutamine and 10 mM HEPES pH 7.4. Cells are subcultured every 3 days by trypsinization using 0.05% trypsin and 0.02% EDTA in a Ca- and Mg-free saline solution (Gibco BRL, Gaithersburg, Md.).
A 5 μM staining solution of the dye 61 is prepared by dilution of 25 μL of 2 mM stock solution into 10 mL DMEM. A 2 μM staining solution of ethidium homodimer-1 is prepared by dilution of 2 μL of 10 mM stock solution into 10 mL phosphate buffered saline (PBS).
The 3T3 cells are stained with the 5 μM solution of dye 61, and then incubated in the dark at room temperature for 30 minutes. The cells are then […] with the 2 μM ethidium homodimer-1 solution.
The 3T3 cells are then observed a long-pass fluorescein filter to view dye 61 fluorescence and a long-pass Texas Red® filter to view the emission of ethidium homodimer. A Nikon fluorescence microscope equipped with a 40× objective is used for inspection and photography.

intact cells = conditions: cited from earlier work
[4] = test system: Peripheral blood lymphocytes; assay: Live/dead staining of peripheral blood lymphocytes, fluorescence microscopy; assay type: cell-based, goat; conditions: 1 μM dye 637, 1 μM calcein AM, 30 minutes each, either order
Procedure: Peripheral blood lymphocytes are isolated from whole goat blood using the standard ficoll density gradient protocol. The cells are incubated in saline buffer with coverslips coated with a cell adhesive. After attachment to the coverslip, the cells are incubated with either
a) 1 μM dye 637 for 30 minutes followed by washing, and subsequently incubating with 1 μM calcein AM for 30 minutes, or
b) as above but labeling first with calcein AM, and subsequently staining with dye 637.
After washing with saline, the stained cells are viewed through a long-pass fluorescein filter to view calcein fluorescence and a long-pass Texas Red® filter to view the emission of dye 637. A Nikon fluorescence microscope equipped with a 40× objective is used for inspection and photography.

calf thymus DNA = conditions: Table 5; bound to excess calf thymus DNA (50 bp/dye); cited from earlier work

## CCOc1ccc(-c2nc3ccc(-c4nc5ccc(N6CCN(C)CC6)cc5[nH]4)cc3[nH]2)cc1 [Hoechst 33342]
Nucleic acids [1]; background
  excitability of nucleic acid complex: only excitable with UV light
  spectral overlap of DNA-bound dye with cellular autofluorescence: overlap significantly with cellular autofluorescence

## Nc1ccc2c(c1)c(-c1ccccc1)[n+](CCCNCCNCCC[n+]1c(-c3ccccc3)c3cc(N)ccc3c3ccc(N)cc31)c1cc(N)ccc21 [ethidium homodimer]
Prokaryotic microbes
  usefulness with prokaryotic microbes versus eukaryotic microbes: less useful with cells from prokaryotic microbes

## CN(C)c1ccc2cc3ccc(N(C)C)cc3nc2c1 [acridine orange]
Nucleic acids [1]; background
  fluorescence enhancement upon binding to nucleic acids: about two-fold
Nucleic acids [1]
  background signal: high background signal

## CCCCC1=CC(=Cc2sc3ccccc3[n+]2C)c2ccccc2N1c1ccccc1 [compound 61]
DNA
  Normalized QY: 2.5
  QY (DNA): 0.46
  QY: 0.46
M. luteus
  Fluorescence/Cell (ex 485/em 530): 49
B. cereus
  Fluorescence/Cell (ex 485/em 530): 196
P. aeruginosa
  Fluorescence/Cell (ex 485/em 530): 5
S. aureus
  Fluorescence/Cell (ex 485/em 530): 15
  Normalized Fluorescence/cell (ex 485 nm/em 530 nm), Staphylococcus aureus: 4.7
Nucleic acids [2]
  EM max: 527
  EX max: 500
S. sonnei
  Fluorescence/Cell (ex 485/em 530): 6
K. pneumonia
  Fluorescence/Cell (ex 485/em 530): 10
S. pyogenes
  Fluorescence/Cell (ex 485/em 530): 0.01
S. oranienburg
  Fluorescence/Cell (ex 485/em 530): 10
E. coli
  Fluorescence/Cell (ex 485/em 530): 10
  Normalized Fluorescence/cell (ex 485 nm/em 530 nm), Escherichia coli: 5
[3]; 5 μM, 30 minutes, room temperature
  staining of live cells: live cells are stained fluorescent green

## Calcein AM
Intact cells; 37° C., up to
  T1/2 (time for half of dye to leak from intact cells): up to 3 hour
Intact cells; in words
  Loading: Easily loaded
  Retention: very good
  pH sensitivity: not very
Prokaryotic microbes
  usefulness with prokaryotic microbes versus eukaryotic microbes: less useful with cells from prokaryotic microbes

## CCCCC1=CC(=CC=Cc2oc3ccccc3[n+]2C)c2ccccc2N1c1ccccc1 [compound 637]
DNA
  QY (DNA): 0.28
Nucleic acids [2]
  EM max: 622
  EX max: 601
[4]
  staining of dead cells: stained only with dye 637 and do not exhibit green fluorescence

## N=C(N)c1ccc(-c2cc3ccc(C(=N)N)cc3[nH]2)cc1 [DAPI]
Nucleic acids [1]; background
  excitability of nucleic acid complex: only excitable with UV light
  spectral overlap of DNA-bound dye with cellular autofluorescence: overlap significantly with cellular autofluorescence

## Nc1ccc2c(c1)c(-c1ccccc1)[n+](CCCNCCNCCC[n+]1c(-c3ccccc3)c3cc(N)ccc3c3ccc(N)cc31)c1cc(N)ccc21 [Ethidium homodimer-1]
Calf thymus DNA
  EM max: 617 nm
  EX max: 528 nm
[3]; 2 μM
  staining of dead cells: dead cells are stained fluorescent red

## CN1C(=Cc2cc[n+](C)c3ccccc23)Sc2ccccc21 [Thiazole Orange, reference compound]
DNA
  Normalized QY: 1.0
  QY (DNA): 0.18
  QY: 0.18
M. luteus
  Fluorescence/Cell (ex 485/em 530): 21
B. cereus
  Fluorescence/Cell (ex 485/em 530): 51
P. aeruginosa
  Fluorescence/Cell (ex 485/em 530): 2
S. aureus
  Fluorescence/Cell (ex 485/em 530): 3.2
  Normalized Fluorescence/cell (ex 485 nm/em 530 nm), Staphylococcus aureus: 1.0
Nucleic acids [2]
  EM max: 530
  EX max: 510
S. sonnei
  Fluorescence/Cell (ex 485/em 530): 1
K. pneumonia
  Fluorescence/Cell (ex 485/em 530): 3
S. pyogenes
  Fluorescence/Cell (ex 485/em 530): < 0.01
S. oranienburg
  Fluorescence/Cell (ex 485/em 530): 1
E. coli
  Fluorescence/Cell (ex 485/em 530): 2
  Normalized Fluorescence/cell (ex 485 nm/em 530 nm), Escherichia coli: 1
Calf thymus DNA
  EM max: 525 nm
  EX max: 509 nm
